Measurements from EP0674635B1, “QUINUCLIDINE DERIVATIVES AS SQUALENE SYNTHASE INHIBITORS” (Syngenta Limited, priority 1992, dated 1994).

How the values were obtained:
[1] = tested on: de novo hepatic cholesterol synthesis; experiment: Acute rat cholesterol synthesis assay (de novo hepatic cholesterol synthesis from 14C-acetate); format: in vivo; settings: for ED50: 14C-acetate
Protocol: (b) Acute rat cholesterol synthesis assay.
This is an acute in vivo test in the rat to measure de novo hepatic cholesterol synthesis from exogenously administered ^14C-acetate.
Female rats (35 - 55 g) are housed in reverse lighting conditions (red light from 0200h - 1400h) for a period of about 2 weeks prior to test. Animals are allowed free access to chow and drinking water throughout this period. At test, animals should weigh 125 - 150 g. Test compounds may be administered by oral gavage, dissolved or suspended in 0.5% polysorbate, or by ip or iv dosing. Control animals receive vehicle alone. After 1 hour the rats are injected ip with 25µCi [2-^14C]-acetate (NEN DUPONT. specific activity, 45-60mCi/mmol NEC-085H, or AMERSHAM specific activity, 50-60mCi/mmol CFA 14) in a volume of 0.25 ml saline (100µCi/ml). After a further hour, rats are terminally anaesthetised with halothane and a blood sample obtained from the abdominal vena cava.
1ml of plasma is lyophilised and then saponified in 2ml ethanolic KOH (1 part 33% KOH, 9 parts ethanol) at 75°C for 2 hours. After addition of an equal quantity of water, non-saponifiable lipids are extracted with two 5ml volumes of hexane. The hexane extracts are evaporated to dryness and the residues dissolved in ethanol to determine cholesterol specific radioactivity. ED50 values can be determined in the standard way.

squalene synthase = biological target: T1, squalene synthase (Rattus norvegicus, UniProt Q02769); experiment: Inhibition of squalene synthase (formation of squalene from tritiated farnesyl pyrophosphate, rat liver microsomal protein); format: biochemical; settings: at a concentration of 2.5µM, substrate 20µM
T1 construct: from tissue; host or cells: rat liver microsomes
T1 sequence (Q02769 1-416): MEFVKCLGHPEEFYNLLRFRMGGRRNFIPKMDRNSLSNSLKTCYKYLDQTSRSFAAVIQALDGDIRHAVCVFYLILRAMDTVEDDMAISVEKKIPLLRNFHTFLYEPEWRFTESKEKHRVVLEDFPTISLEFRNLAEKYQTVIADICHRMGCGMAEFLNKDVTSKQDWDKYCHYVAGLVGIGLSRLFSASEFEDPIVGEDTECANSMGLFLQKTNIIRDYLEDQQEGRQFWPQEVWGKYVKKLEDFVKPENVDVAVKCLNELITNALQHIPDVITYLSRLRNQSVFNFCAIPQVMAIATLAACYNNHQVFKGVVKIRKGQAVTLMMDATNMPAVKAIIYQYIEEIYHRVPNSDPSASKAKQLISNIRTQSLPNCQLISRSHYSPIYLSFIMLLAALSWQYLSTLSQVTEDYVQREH
Protocol: (a) Inhibition of Squalene synthase
In this test, the ability of a compound to prevent the formation of squalene from a radioactive substrate (tritiated farnesyl pyrophosphate) is assessed.
The test compound is incubated at a concentration of 25 micromolar in 200µl of a buffered solution containing potassium phosphate (50mM), MgCl2 (4.95mM), KF (9.9mM), NADPH (0.9mM) and rat liver microsomal protein (20µg). Rat liver microsomes are prepared by the method described in published European Patent Application No. 324,421 and stored in liquid nitrogen prior to assay. Assay vials are kept at 37°C throughout the incubation.
The reaction is started with the addition of the substrate (1-(^3H]-farnesyl pyrophosphate), final concentration 20µM, and stopped after 15 minutes reaction time with the addition of 50µl of 4% KOH. The reaction products are separated from unreacted substrate after application to a C-18 octadecyl 1ccBond column (Analytichem Int product No. 617101). An aqueous fraction is eluted with 250µl of 0.1M KOH. Squalene is then eluted with 1.0 ml 10% ethylacetate in hexane and radioactivity determined. The difference in radioactivity in the presence and absence of the test compound is used to determine the level of inhibition. […] The IC50 can then be determined from a plot of percentage inhibition against concentration of test compound.

Row | Structure (SMILES) | ED50 [1] | inhibition at 2.5 µM (squalene synthase) | reduction in the rate of cholesterol biosynthesis ([1]; dose not given)
1 | OC1(c2ccc(-c3nc4ccccc4o3)cc2)CN2CCC1CC2 (centres unmarked) [Example 6, 3-[4-(benzoxazol-2-yl)phenyl]quinuclidin-3-ol] | ~4.5 mg/kg |  | 
2 | OC1(c2ccc(-c3cnc4ccccc4c3)cc2)CN2CCC1CC2 (centres unmarked) [Example 12, 3-[4-quinol-3-ylphenyl]quinculidin-3-ol] | ~3.8 mg/kg |  | 
3 | OC1(c2ccc(-c3ccc4ccccc4n3)cc2)CN2CCC1CC2 (centres unmarked) [Example 3, 3-[4-(2-quinolyl)phenyl)quinuclidin-3-ol] | ~14 mg/kg | ~71% | 74%
